Test system: patients with MDD and an inadequate response to an SSRI or SNRI
Assay: Massachusetts General Hospital Sexual Functioning Index (MGH-SFI), Study ACP-103-042
Assay type: in vivo, human
Details: for MGH-SFI 01: Interest in Sex, Change from Baseline to Week 5 Mean (SE) / MGH-SFI 01: Interest in Sex, Change from Baseline to Week 5 Median / MGH-SFI 01: Interest in Sex, Week 5 Mean (SE) / MGH-SFI 01: Interest in Sex, Week 5 Median / MGH-SFI 01: Interest in Sex, Effect Size (Cohen's d): subgroup >50 years
Excerpt: “Massachusetts General Hospital Sexual Functioning Index (MGH-SFI)” is described, for instance, in Labbate and Lare, 2001, Psychother Psychosom. 70(4):221-225. This is a patient facing questionnaire that quantifies sexual dysfunction into 5 functional domains (“interest in sex,” “sexual arousal,” “ability to achieve orgasm,” “ability to maintain erection” (males only), and “sexual satisfaction”). Patients rate each item using a 6-point scale ranging from 1 (good function) to 6 (poor function). High scores indicate poor sexual functioning. […] The determination of the subject's status and eligibility for randomization in Stage 2 was made in a double-blind manner. […] Sexual functioning was assessed using the Massachusetts General Hospital Sexual Functioning Index or MGH-SFI (Labbate and Lare, 2001, Psychother Psychosom. 70(4):221-225). This is a patient facing questionnaire that quantifies sexual dysfunction into 5 functional domains (“interest in sex,” “sexual arousal,” “ability to achieve orgasm,” “ability to maintain erection” [malesonly], and “sexual satisfaction”). Patients rate each item using a 6-point scale ranging from 1 (good function) to 6 (poor function). The time frame for this scale is the past month. This scale was administered at baseline and Week 5 in both stages of the study. High scores indicate poor sexual functioning. In ACP-103-042 the mean scores for MGH-SFI at Baseline was calculated over all 5 domains for males and the 4 domains for females. For MGH-SFI (follow-up version) at Study Weeks 5 and 10, the mean was calculated in the same way as MGH-SFI at Baseline. […] Tables 10-27 summarize the detailed data of MGH-SFI individual items of the overall study group (Tables 10-15), the subgroup of age of <=50 (Tables 16-21) and the subgroup of age of >50 (Table 21-26). In Tables 9-26, ANCOVA=analysis of covariance; OC=observed cases; LSM=least squares mean; CI=confidence interval; SD=standard deviation; SE=standard error. Stage 1: Baseline=Study Week 0, Week 5=Study Week 5; Stage 2: Baseline=Study Week 5, Week 5=Study Weeks 10. LSM from the stage-specific ANCOVA analysis with the change from baseline as the outcome, treatment group as a factor, and the corresponding Baseline value as a covariate. 2-sided p-value for treatment difference from the stage-specific ANCOVA analysis. An treatment effect size (Cohen's d) is calculated using the formula: Effect Size=Least Square mean difference between PIM and PBO/SD. The corresponding 95% confidence interval for an effect size is calculated based on the theoretical probability distribution of the effect size. […] Tables 10-15 and 28-38 summarize the detailed data of MGH-SFI individual items of the overall study group (Tables 10-15), the female subgroup (Tables 33-37) and the male subgroup (Table 38-43). An treatment effect size (Cohen's d) is calculated using the formula: Effect Size=Least Square mean difference between PIM and PBO/SD. The corresponding 95% confidence interval for an effect size is calculated based on the theoretical probability distribution of the effect size. In Tables 10-15 and 28-38, ANCOVA=analysis of covariance; OC=observed cases; LSM=least squares mean; CI=confidence interval; SD=standard deviation; SE=standard error. Stage 1: Baseline=Study Week 0, Week 5=Study Week 5; Stage 2: Baseline=Study Week 5, Week 5=Study Weeks 10. LSM from the stage-specific ANCOVA analysis with the change from baseline as the outcome, treatment group as a factor, and the corresponding Baseline value as a covariate. 2-sided p-value for treatment difference from the stage-specific ANCOVA analysis. An treatment effect size (Cohen's d) is calculated using the formula: Effect Size=Least Square mean difference between PIM and PBO/SD. The corresponding 95% confidence interval for an effect size is calculated based on the theoretical probability distribution of the effect size.

[1] = subgroup >50 years old, Stage 1, PIM 34 mg vs placebo
[2] = subgroup >50 years old, Stage 2, PIM 34 mg
[3] = subgroup >50 years old, Stage 2, PIM 34 mg vs placebo

CC(C)COc1ccc(CNC(=O)N(Cc2ccc(F)cc2)C2CCN(C)CC2)cc1 [pimavanserin, N-(4-Fluorophenylmethyl)-N-(1-methylpiperidin-4-yl)-N′-(4-(2-methylpropyloxy)phenylmethyl)carbamide]
MGH-SFI 04: (Men) Ability to Get and Maintain an Erection, Effect Size (Cohen's d) [1]: −0.568 | MGH-SFI 05: Overall Sexual Satisfaction, Effect Size (Cohen's d) [1]: 0.757 | MGH-SFI 06: Overall Improvement Since Last Medication Change, Effect Size (Cohen's d) [1]: 0.531 | MGH-SFI 02: Ability to Get Sexually Aroused or Excited, Change from Baseline to Week 5 Mean (SE) [2]: −0.4 (0.21) | MGH-SFI 02: Ability to Get Sexually Aroused or Excited, Change from Baseline to Week 5 Median [2]: 0.0 | MGH-SFI 02: Ability to Get Sexually Aroused or Excited, Week 5 Mean (SE) [2]: 4.4 (0.46) | MGH-SFI 02: Ability to Get Sexually Aroused or Excited, Week 5 Median [2]: 5.0 | MGH-SFI 03: Ability to Achieve Orgasm, Change from Baseline to Week 5 Mean (SE) [2]: −0.5 (0.27) | MGH-SFI 03: Ability to Achieve Orgasm, Change from Baseline to Week 5 Median [2]: 0.0 | MGH-SFI 03: Ability to Achieve Orgasm, Week 5 Mean (SE) [2]: 4.5 (0.54) | MGH-SFI 03: Ability to Achieve Orgasm, Week 5 Median [2]: 5.0 | MGH-SFI 04: (Men) Ability to Get and Maintain an Erection, Change from Baseline to Week 5 Mean (SE) [2]: −1.6 (0.51) | MGH-SFI 04: (Men) Ability to Get and Maintain an Erection, Change from Baseline to Week 5 Median [2]: −2.0 | MGH-SFI 04: (Men) Ability to Get and Maintain an Erection, Week 5 Mean (SE) [2]: 2.8 (0.92) | MGH-SFI 04: (Men) Ability to Get and Maintain an Erection, Week 5 Median [2]: 2.0 | MGH-SFI 05: Overall Sexual Satisfaction, Change from Baseline to Week 5 Mean (SE) [2]: −0.8 (0.39) | MGH-SFI 05: Overall Sexual Satisfaction, Change from Baseline to Week 5 Median [2]: 0.0 | MGH-SFI 05: Overall Sexual Satisfaction, Week 5 Mean (SE) [2]: 4.2 (0.58) | MGH-SFI 05: Overall Sexual Satisfaction, Week 5 Median [2]: 5.0 | MGH-SFI 06: Overall Improvement Since Last Medication Change, Week 5 Mean (SE) [2]: 3.5 (0.40) | MGH-SFI 06: Overall Improvement Since Last Medication Change, Week 5 Median [2]: 4.0 | MGH-SFI 02: Ability to Get Sexually Aroused or Excited, Effect Size (Cohen's d) [3]: −0.075 | MGH-SFI 03: Ability to Achieve Orgasm, Effect Size (Cohen's d) [3]: 0.169 | MGH-SFI 04: (Men) Ability to Get and Maintain an Erection, Effect Size (Cohen's d) [3]: 1.174 | MGH-SFI 05: Overall Sexual Satisfaction, Effect Size (Cohen's d) [3]: 0.555 | MGH-SFI 06: Overall Improvement Since Last Medication Change, Effect Size (Cohen's d) [3]: 0.406 | MGH-SFI 01: Interest in Sex, Change from Baseline to Week 5 Mean (SE) (Stage 1, PIM 34 mg): −1.0 (0.24) | MGH-SFI 01: Interest in Sex, Change from Baseline to Week 5 Median (Stage 1, PIM 34 mg): −1.0 | MGH-SFI 01: Interest in Sex, Week 5 Mean (SE) (Stage 1, PIM 34 mg): 3.9 (0.32) | MGH-SFI 01: Interest in Sex, Week 5 Median (Stage 1, PIM 34 mg): 4.0 | MGH-SFI 01: Interest in Sex, Effect Size (Cohen's d) (Stage 1, PIM 34 mg vs placebo): 0.649 | MGH-SFI 01: Interest in Sex, Change from Baseline to Week 5 Mean (SE) (Stage 2, PIM 34 mg): −0.6 (0.24) | MGH-SFI 01: Interest in Sex, Change from Baseline to Week 5 Median (Stage 2, PIM 34 mg): 0.0 | MGH-SFI 01: Interest in Sex, Week 5 Mean (SE) (Stage 2, PIM 34 mg): 4.4 (0.45) | MGH-SFI 01: Interest in Sex, Week 5 Median (Stage 2, PIM 34 mg): 5.0 | MGH-SFI 01: Interest in Sex, Effect Size (Cohen's d) (Stage 2, PIM 34 mg vs placebo): 0.468

Reference: patent US20220016101A1 (ACADIA Pharmaceuticals Inc., priority 2018, published 2022)
